Measured values as given in patent publication US20090156646A1, “PYRIDYLPHENOL COMPOUND AND USE THEREOF” (TAKEDA PHARMACEUTICAL COMPANY LIMITED, priority 2005, published 2009).
pIC50: −log10 of the molar value. Where a name gives a salt, the structure may show the parent alone.

Each molecule was assayed against T1, human metastin receptor hOT7T175 (Homo sapiens, UniProt Q969F8, L364H) (assay: binding inhibiting activity: 125I-metastin (40-54) binding to cell membrane fraction of h175 KB34 cells). Settings: room temperature 60 minutes, read-out: binding inhibiting activity, represented by the IC50 value.
T1 construct: encoding the entire length of human metastin receptor hOT7T175; expressed in transfected cells; host or cells: CHO/dhFr- cells (ATCC #CRL-9096) stably transfected with pAKKO-hOT7T175; clone h175-16 was used as whole cells for FLIPR
Protocol: cDNA fragments (SEQ ID NO: 2) encoding the entire length of human metastin receptor hOT7T175 were incorporated into expression vector pAKKO1.11H to produce animal cell expression plasmids pAKKO-hOT7T175. CHO/dhFr-cells (ATCC, #CRL-9096) were seeded onto 6 cm culture dishes (Becton Dickinson) at a density of 0.3×10^6 cells/dish, and cultured in the conditions of 48 hours, 37° C. and 5% CO2. 5 μg pAKKO-hOT7T175 plasmid DNA was transfected to the resultant cells by a known method (described in Example 3 of WO 00/24890) using the Cellphect Transfection Kit (Amersham, #27-9268-01). The DNA-transfected cells were cultured in the Dulbecco's modified Eagle medium (DMEM) (Sigma, #D6046) containing 10% dialyzed FBS (Biowest, #S180D), 1× Non-Essential Amino Acid (Invitrogen, #11140-050) and 50 μg/ml Gentamycin (Invitrogen, #15750-060; and cell strains stably expressing the plasmid genes were selected. The obtained 41 clones were treated with the FLIPR assay (in accordance with the method described in Example 3 of WO 00/24890), and the reactivity to the human metastin […] (Nos. 40 to 54 of the human metastin sequence; Peptide Institute, Inc., #4389-v) was evaluated. In the end, h175 KB34 cell strains were selected. By substantially the same method, h175-16 cell strains were also produced.
The h175 KB34 cells were cultured to be on the stage of 40-50% confluency using a cell factory (Nunc, #164327), and then cells were recovered in the following method.
First, the medium was disposed, and the cells were washed twice with 200 ml EDTA/PBS(−). Another 200 ml of EDTA/PBS(−) was added, and the cells were kept still for 20 minutes at room temperature until being peeled off. The cells were recovered into four 50 ml tubes (Becton Dickinson, #352070), and centrifuged (2,000 rpm, 10 min., 4° C.) by a reduced performance centrifuge (TOMY, RL-101). The supernatant was disposed, and the pellets in the four tubes were each suspended with 10 ml EDTA/PBS(−) and collected into one tube (Becton Dickinson, #352070). The pellet was further centrifuged (2,000 rpm, 10 min., 4° C.). The resultant pellet was suspended with 20 ml ice-cooled homogenizer buffer [10 mM NaHCO3, 2 mM EGTA, 0.2 mM magnesium acetate, 10 μg/ml Leupeptin (Peptide Institute, Inc., #4041), 10 μg/ml E-64 (Peptide Institute, Inc., # 4096), 100 μg/ml o-phenanthroline (Dojindo Laboratories), 90 μg/ml PMSF (Wako Pure Chemical Industries, Ltd.), 10 μg/ml Pepstatin A (Peptide Institute, Inc., #4397), pH7.3]. The cell suspension was homogenized 3 times, each for 30 seconds, using a Polytron homogenizer. The resultant homogenate was centrifuged (2,500 rpm, 10 min, 4° C.) using a high performance refrigerated centrifuge (Hitachi, Ltd., CR26H). The supernatant was recovered into a super-centrifuge tube, and super-centrifuged (30,000 rpm, 60 min, 4° C.) using a super-centrifuge (Hitachi, Ltd., SCP70H). 3 ml homogenizer buffer was added to the resultant pellet, and the pellet was suspended by pipetting. 3 ml glycerol (Wako Pure Chemical Industries, Ltd.) was added to the resultant suspension and diluted 2-folds. The resultant substance was used as a cell membrane fraction of the h175 KB34 cells. Each […] of the membrane fraction was put into a 1.5 ml tube (Eppendorf, #0030120.086), stored in a freezer (−30 C) so as not to be frozen, and used for a binding assay.
An assay buffer was prepared on the day of the test by adding, to each 100 ml of an assay basic buffer [20 mM Tris, 2.5 mM Magnesium Acetate, 2 mM EGTA, pH 7.4], 1 mg Leupeptin (Peptide Institute, Inc., 4041), 1 mg E-64 (Peptide Institute, Inc., 4096), 10 mg o-phenanthroline (Dojindo Laboratories), 9 mg PMSF (Wako Pure Chemical Industries, Ltd.) and 1 mg Pepstatin A (Peptide Institute, Inc., 4397). The prepared assay buffer was stored at 4° C. until being used. When the measurement was to be performed with no BSA, the above-described assay buffer was used. […]

T1 sequence (Q969F8 whole entry L364H): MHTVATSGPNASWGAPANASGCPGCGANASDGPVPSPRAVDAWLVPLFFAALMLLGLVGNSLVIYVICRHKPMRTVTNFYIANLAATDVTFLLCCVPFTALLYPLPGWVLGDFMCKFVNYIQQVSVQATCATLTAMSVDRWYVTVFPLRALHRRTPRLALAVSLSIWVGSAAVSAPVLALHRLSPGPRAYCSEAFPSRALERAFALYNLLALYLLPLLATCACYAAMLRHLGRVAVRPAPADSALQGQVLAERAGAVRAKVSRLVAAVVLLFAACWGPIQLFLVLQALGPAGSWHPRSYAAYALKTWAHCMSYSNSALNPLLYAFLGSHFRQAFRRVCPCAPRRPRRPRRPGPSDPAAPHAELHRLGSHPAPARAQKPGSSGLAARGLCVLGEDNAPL

pIC50, ≥ 5.00:
COc1ccc(-c2cc(-c3cccc(NC(=O)CCN)c3)c(C#N)c(NC(=O)c3ccccc3)n2)c(O)c1 [Example 50, N-{4-[3-(β-alanylamino)phenyl]-3-cyano-6-(2-hydroxy-4-methoxyphenyl)pyridin-2-yl}benzamide trifluoroacetate]
N#Cc1c(-c2cccc(NC(=O)CCN)c2)cc(-c2ccc(Cl)cc2O)nc1NC(=O)c1ccccc1 [Example 51, N-{4-[3-(β-alanylamino)phenyl]-6-(4-chloro-2-hydroxyphenyl)-3-cyanopyridin-2-yl}benzamide trifluoroacetate]
N#Cc1c(-c2cccc(NC(=O)CCN)c2)cc(-c2ccc(Cl)cc2O)nc1NC(=O)c1cccs1 [Example 56, N-{4-[3-(β-alanylamino)phenyl]-6-(4-chloro-2-hydroxyphenyl)-3-cyanopyridin-2-yl}thiophene-2-carboxamide trifluoroacetate]
N#Cc1c(-c2cccc(NC(=O)CCN)c2)cc(-c2ccc(F)cc2O)nc1NC(=O)c1cccs1 [Example 58, N-{4-[3-(β-alanylamino)phenyl]-3-cyano-6-(4-fluoro-2-hydroxyphenyl)pyridin-2-yl}thiophene-2-carboxamide hydrochloride]
N#Cc1c(-c2cccc(C(=O)NCCN)c2)cc(-c2ccc(F)cc2O)nc1NC(=O)c1ccco1 [Example 66, N-[4-(3-{[(2-aminoethyl)amino]carbonyl}phenyl)-3-cyano-6-(4-fluoro-2-hydroxyphenyl)pyridin-2-yl]-2-furamide hydrochloride]
N#Cc1c(-c2cccc(NC(=O)[C@@H](N)Cc3cnc[nH]3)c2)cc(-c2ccc(Cl)cc2O)nc1NC(=O)c1ccco1 [Example 243, N-{3-[6-(4-chloro-2-hydroxyphenyl)-3-cyano-2-(2-furoylamino)pyridin-4-yl]phenyl}-L-histidinamide dihydrochloride]
N#Cc1c(-c2cccc(NC(=O)CCN)c2)cc(-c2ccc(Cl)cc2O)nc1NC(=O)c1ccno1 [Example 251, N-[4-[3-(β-alanylamino)phenyl]-6-(4-chloro-2-hydroxyphenyl)-3-cyanopyridin-2-yl]isoxazole-5-carboxamide hydrochloride]
N#Cc1c(-c2cccc(NC(=O)[C@H](N)Cc3cnc[nH]3)c2)cc(-c2ccc(Cl)cc2O)nc1NC(=O)c1ccco1 [Example 253, N-{3-[6-(4-chloro-2-hydroxyphenyl)-3-cyano-2-(2-furoylamino)pyridin-4-yl]phenyl}-D-histidinamide dihydrochloride]
N#Cc1c(-c2cccc(NC(=O)CCN)c2)cc(-c2ccc(Cl)cc2O)nc1NC(=O)c1ccoc1 [Example 254, N-[4-[3-(β-alanylamino)phenyl]-6-(4-chloro-2-hydroxyphenyl)-3-cyanopyridin-2-yl]-3-furamide hydrochloride]
COc1ccc(C(=O)Nc2nc(-c3ccc(Cl)cc3O)cc(-c3cccc(NC(=O)CCN)c3)c2C#N)c(OC)c1 [Example 255, N-[4-[3-(β-alanylamino)phenyl]-6-(4-chloro-2-hydroxyphenyl)-3-cyanopyridin-2-yl]-2,4-dimethoxybenzamide dihydrochloride]
N#Cc1c(-c2cccc(NC(=O)[C@H](N)Cc3c[nH]cn3)c2)cc(-c2ccc(F)cc2O)nc1NC(=O)c1ccco1 [Example 261, N-{3-[3-cyano-6-(4-fluoro-2-hydroxyphenyl)-2-(2-furoylamino)pyridin-4-yl]phenyl}-D-histidinamide hydrochloride]
C[C@H](N)CNC(=O)c1cccc(-c2cc(-c3ccc(Cl)cc3O)nc(NC(=O)c3ccno3)c2C#N)c1 [Example 268, N-[4-[3-({[(2S)-2-aminopropyl]amino}carbonyl)phenyl]-6-(4-chloro-2-hydroxyphenyl)-3-cyanopyridin-2-yl]isoxazole-5-carboxamide hydrochloride]
N#Cc1c(-c2ccnc(C(=O)NCCN)c2)cc(-c2ccccc2O)nc1NC(=O)c1ccco1 [Example 272, N-(2-aminoethyl)-3′-cyano-2′-(2-furoylamino)-6′-(2-hydroxyphenyl)-4,4′-bipyridine-2-carboxamide dihydrochloride]
CC(N)CC(=O)Nc1cccc(-c2cc(-c3ccc(Cl)cc3O)nc(NC(=O)c3cccn3C)c2C#N)c1 (stereo not shown) [Example 274, N-[4-{3-[(3-aminobutanoyl)amino]phenyl}-6-(4-chloro-2-hydroxyphenyl)-3-cyanopyridin-2-yl]-1-methyl-1H-pyrrole-2-carboxamide hydrochloride]
COc1c(NC(=O)OC(C)(C)C)cccc1-c1cc(-c2ccccc2O)nc(NC(=O)c2ccco2)c1C#N [Example 275, tert-butyl{3-[3-cyano-2-(2-furoylamino)-6-(2-hydroxyphenyl)pyridin-4-yl]-2-methoxyphenyl}carbamate]
COc1c(NC(=O)CCN)cccc1-c1cc(-c2ccccc2O)nc(NC(=O)c2ccco2)c1C#N [Example 276, N-[4-[3-(β-alanylamino)-2-methoxyphenyl]-3-cyano-6-(2-hydroxyphenyl)pyridin-2-yl]-2-furamide hydrochloride]
N#Cc1c(N2CCCC(C(=O)NCCN)C2)cc(-c2ccccc2O)nc1NC(=O)c1ccco1 (stereo not shown) [Example 288, N-(2-aminoethyl)-1-[3-cyano-2-(2-furoylamino)-6-(2-hydroxyphenyl)pyridin-4-yl]piperidine-3-carboxamide hydrochloride]
Cl.N#Cc1c(-c2cccc(NC(=O)CC3CCCCN3)c2)cc(-c2ccc(F)cc2O)nc1NC(=O)c1ccco1 (stereo not shown) [Example 290, hydrochloride]
CN(C)CC(=O)Nc1cccc(-c2cc(-c3ccc(F)cc3O)nc(NC(=O)c3ccco3)c2CN(C)C)c1 [Example 300, N-[3-[(dimethylamino)methyl]-4-{3-[(N,N-dimethylglycyl)amino]phenyl}-6-(4-fluoro-2-hydroxyphenyl)pyridin-2-yl]-2-furamide dihydrochloride]
N#Cc1c(-c2cccc(NC(=O)[C@@H](N)CN)c2)cc(-c2ccc(F)cc2O)nc1NC(=O)c1ccco1 [Example 302, N-[4-{3-[(3-amino-L-alanyl)amino]phenyl}-3-cyano-6-(4-fluoro-2-hydroxyphenyl)pyridin-2-yl]-2-furamide dihydrochloride]
CCN(CC)CCN(CC)c1cccc(-c2cc(-c3ccc(F)cc3O)nc(NC(=O)c3ccco3)c2C#N)c1 [Example 304, N-[3-cyano-4-{3-[[2-(diethylamino)ethyl] (ethyl)amino]phenyl}-6-(4-fluoro-2-hydroxyphenyl)pyridin-2-yl]-2-furamide dihydrochloride]
CNCC(=O)Nc1cccc(-c2cc(-c3ccc(F)cc3O)nc(NC(=O)c3ccco3)c2C#N)c1 [Example 312, N-(3-cyano-6-(4-fluoro-2-hydroxyphenyl)-4-{3-[(N-methylglycyl)amino]phenyl}pyridin-2-yl)-2-furamide hydrochloride]
